In PubChem BioAssay AID2060347 (Molecular Pharmacology Branch, DTP, NCI, 2025):

Tested on: 817829-284-R-J1-PDC spheroids with HUVEC/MSC, viability
Assay: Anticancer human tumor 817829-284-R-J1-PDC patient-derived colon adenocarcinoma cell line growth inhibition [TAK]
Conditions: for IC50: curve of first compound; for viability, T/C: stronger effect = lower value
Method in brief: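 Drug combinations, each paired with TAK-243 or ipatasertib, were tested on multi-cell spheroids of 60% malignant cells, 25% HUVEC and 15% hMSC. Top concentrations were at or near the clinical Cmax (10 microM if undetermined), decreasing by half-log; viability is given as % test/control.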

[1] = second compound 0.3 µM, first compound 0.0316 µM
[2] = second compound 0.3 µM, first compound 0.1 µM
[3] = second compound 0.3 µM, first compound 0.316 µM
[4] = second compound 0.3 µM, first compound 1 µM
[5] = second compound 0.949 µM, first compound 0.0316 µM
[6] = second compound 0.949 µM, first compound 0.1 µM
[7] = second compound 0.949 µM, first compound 0.316 µM
[8] = second compound 0.949 µM, first compound 1 µM
[9] = second compound 3 µM, first compound 0.0316 µM
[10] = second compound 3 µM, first compound 0.1 µM
[11] = second compound 3 µM, first compound 0.316 µM
[12] = second compound 3 µM, first compound 1 µM
[13] = second compound 9.49 µM, first compound 0.0316 µM
[14] = second compound 9.49 µM, first compound 0.1 µM
[15] = second compound 9.49 µM, first compound 0.316 µM
[16] = second compound 9.49 µM, first compound 1 µM
[17] = second compound 30 µM, first compound 0.0316 µM
[18] = second compound 30 µM, first compound 0.1 µM
[19] = second compound 30 µM, first compound 0.316 µM
[20] = second compound 30 µM, first compound 1 µM

SMILES | IC50 (second compound 0.3 µM) [µM] | IC50 (second compound 0.949 µM) [µM] | IC50 (second compound 3 µM) [µM] | IC50 (second compound 9.49 µM) [µM] | IC50 (second compound 30 µM) [µM] | viability, T/C [1] [%] | viability, T/C [2] [%] | viability, T/C [3] [%] | viability, T/C [4] [%] | viability, T/C [5] [%] | viability, T/C [6] [%] | viability, T/C [7] [%] | viability, T/C [8] [%] | viability, T/C [9] [%] | viability, T/C [10] [%] | viability, T/C [11] [%] | viability, T/C [12] [%] | viability, T/C [13] [%] | viability, T/C [14] [%] | viability, T/C [15] [%] | also measured
COc1c(OCCCN2CCOCC2)ccc2c3n(c(=NC(=O)c4cnc(N)nc4)nc12)CCN3 + CC(C)NCC(C(=O)N1CCN(c2ncnc3c2C(C)CC3O)CC1)c1ccc(Cl)cc1 | 0.00827 | < 0.00316 | < 0.00316 | < 0.00316 | < 0.00316 | 23.3 | 8.89 | 2.93 | 2.83 | 8.85 | 4.57 | 1.95 | 1.97 | 3.03 | 2.24 | 1.67 | 1.29 | 2.03 | 2.04 | 1.13 | viability, T/C (second compound 0.3 µM, first compound 0.00316 µM): 64.6%; viability, T/C (second compound 0.3 µM, first compound 0.01 µM): 47%; viability, T/C (second compound 0.949 µM, first compound 0.00316 µM): 20.2%; viability, T/C (second compound 0.949 µM, first compound 0.01 µM): 10.4%; viability, T/C (second compound 3 µM, first compound 0.00316 µM): 7.34%; viability, T/C (second compound 3 µM, first compound 0.01 µM): 4.51%; viability, T/C (second compound 9.49 µM, first compound 0.00316 µM): 5.41%; viability, T/C (second compound 9.49 µM, first compound 0.01 µM): 3.12%; viability, T/C [16]: 1.28%; viability, T/C (second compound 30 µM, first compound 0.00316 µM): 3.31%; viability, T/C (second compound 30 µM, first compound 0.01 µM): 1.8%; viability, T/C [17]: 1.37%; viability, T/C [18]: 1.05%; viability, T/C [19]: 0.7%; viability, T/C [20]: 0.47%
Cc1nc(NC(=O)N2CCCC2C(N)=O)sc1-c1ccnc(C(C)(C)C(F)(F)F)c1 (stereo not given) + CC(C)NCC(C(=O)N1CCN(c2ncnc3c2C(C)CC3O)CC1)c1ccc(Cl)cc1 | 1.19 | 0.0762 | < 0.0316 | < 0.0316 | < 0.0316 | 87.9 | 80.6 | 74.8 | 51.9 | 61.8 | 48.5 | 28.4 | 26.7 | 18.1 | 17 | 13.2 | 6.56 | 9.9 | 9.69 | 8.57 | viability, T/C (second compound 0.3 µM, first compound 3.16 µM): 37%; viability, T/C (second compound 0.3 µM, first compound 10 µM): 33.1%; viability, T/C (second compound 0.949 µM, first compound 3.16 µM): 14.4%; viability, T/C (second compound 0.949 µM, first compound 10 µM): 8.03%; viability, T/C (second compound 3 µM, first compound 3.16 µM): 6.29%; viability, T/C (second compound 3 µM, first compound 10 µM): 5.54%; viability, T/C [16]: 5.76%; viability, T/C (second compound 9.49 µM, first compound 3.16 µM): 3.41%; viability, T/C (second compound 9.49 µM, first compound 10 µM): 2.85%; viability, T/C [17]: 6.53%; viability, T/C [18]: 6.06%; viability, T/C [19]: 4.67%; viability, T/C [20]: 3.84%; viability, T/C (second compound 30 µM, first compound 3.16 µM): 2.64%; viability, T/C (second compound 30 µM, first compound 10 µM): 1.58%
